Source: US9556139B2, “6-substituted phenoxychroman carboxylic acid derivatives” (Array BioPharma Inc., priority 2008, dated 2017)

molecular target: human DP2 (Homo sapiens (Human), UniProt Q9Y5Y4); assay: DP-2 Binding Inhibition Assay (3H-PGD2 binding to membranes of K562 cells expressing DP2); details: EC50 (nM) 4% HSA, inhibition of 3H-PGD2 binding, 4% HSA
Description: DP-2 Binding Inhibition Assay
The coding sequence of human DP2 was introduced into the human Leukemic cell line K562 by electroporation and stable clones expressing DP2 were obtained by limiting dilution followed by cell surface staining with a rat monoclonal antibody specific for human DP2. Membranes were prepared from one of these DP2 expressing clones and used to determine the ability of compounds of the present invention to inhibit binding of prostaglandin D2 (PGD2) to its receptor DP2 in the presence of one or more of the following serum protein concentrations, 0.1% BSA, 1% HSA or 4% HSA, by the following procedure. Membranes (1.25 μg/well for 0.1% BSA and 6 μg/well for 1% or 4% HSA) were mixed with ^3H-labeled PGD2 and various concentrations of test compounds in 150 μL of binding buffer (50 mM Tris-HCl, pH 7.4, 40 mM MgCl2, 0.1% bovine serum albumin, 0.1% NaN3) in 96-well U-bottom polypropylene plates. After incubation for 60 minutes at room temperature, the assay was transferred to a filtration plate (#MAFB; Millipore Corporation, Bedford, Mass.), and washed three times with binding buffer. Radioactivity was measured by a scintillation counter (TopCount; PerkinElmer Life Sciences, Boston, Mass.). Nonspecific binding was determined by incubations in the presence of 1 μM unlabeled PGD2 or 5 μM of a known DP2 antagonist. EC50 values for inhibition of binding were determined for each compound tested from the inflexion point of a standard 4-parameter logistical curve fitted to the values obtained.

human DP2, sequence (Q9Y5Y4 whole entry): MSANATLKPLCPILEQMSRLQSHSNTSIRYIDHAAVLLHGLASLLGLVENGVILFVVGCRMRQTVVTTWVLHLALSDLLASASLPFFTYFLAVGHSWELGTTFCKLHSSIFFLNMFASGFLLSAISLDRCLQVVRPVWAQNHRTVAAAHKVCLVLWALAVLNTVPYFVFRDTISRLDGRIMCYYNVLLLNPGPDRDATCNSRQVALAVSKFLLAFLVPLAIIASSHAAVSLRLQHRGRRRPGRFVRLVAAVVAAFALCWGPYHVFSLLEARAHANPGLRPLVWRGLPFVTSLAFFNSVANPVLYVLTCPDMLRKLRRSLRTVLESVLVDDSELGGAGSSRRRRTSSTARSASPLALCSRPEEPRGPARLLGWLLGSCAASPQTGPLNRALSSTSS

| Compound | EC50 [nM] |
| --- | --- |
| O=C(NC1CCC(c2ccccc2)CC1)c1ccc(Oc2cc3c(cc2Cl)C(C(=O)O)CCO3)cc1 (single isomer, unassigned) [Example 155 peak 2, 6-chloro-7-(4-(4-phenylcyclohexylcarbamoyl)phenoxy)chroman-4-carboxylic acid, isomer 2] | 1670 |

same assay, conditions: read-out: EC50 (Nm) 1% HSA; inhibition of 3H-PGD2 binding, 1% HSA

| Compound | EC50 [nM] |
| --- | --- |
| O=C(NCCc1ccc(Cl)cc1)c1ccc(Oc2ccc3c(c2)OCCC3C(=O)O)cc1 (centres unmarked) [Example 128, 7-(4-(4-chlorophenyethylcarbamoyl)phenoxy)chroman-4-carboxylic acid] | 108 |
| N#Cc1cc2c(cc1Oc1ccc(C(=O)NC3Cc4ccccc4C3)cc1)OCCC2C(=O)O (centres unmarked) [Example 6, 6-Cyano-7-(4-(2,3-dihydro-1H-inden-2-ylcarbamoyl)phenoxy)chroman-4-carboxylic acid] | 77.3 |
| N#Cc1cc2c(cc1Oc1ccc(C(=O)NC3CC3c3ccccc3)cc1)OCCC2C(=O)O (centres unmarked) [Example 47, 7-(4-((2-Phenylcyclopropyl)carbamoyl)phenoxy)-6-cyano-3,4-dihydro-2H-chromene-4-carboxylic acid] | 12.1 |
| COc1ccc2c(c1)CCC(NC(=O)c1ccc(Oc3cc4c(cc3C#N)C(C(=O)O)CCO4)cc1)C2 (centres unmarked) [Example 53, 6-Cyano-7-(4-(6-methoxy-1,2,3,4-tetrahydronaphthalen-2-ylcarbamoyl)phenoxy)chroman-4-carboxylic acid] | 60.5 |
| N#Cc1cc2c(cc1Oc1ccc(C(=O)NC3CC3c3ccc(Cl)cc3)cc1)OCCC2C(=O)O (centres unmarked) [Example 51, 7-(4-((2-(4-Chlorophenyl)cyclopropyl)carbamoyl)phenoxy)-6-cyano-3,4-dihydro-2H-chromene-4-carboxylic acid] | 12.1 |
| CC(C)(C)c1ccc(CCNC(=O)c2ccc(Oc3cc4c(cc3C#N)C(C(=O)O)CCO4)cc2)cc1 (centres unmarked) [Example 57, 7-(4-(4-tert-Butylphenethylcarbamoyl)phenoxy)-6-cyanochroman-4-carboxylic acid] | 18.9 |

same assay, conditions: read-out: EC50 (nM) 4% HSA; inhibition of 3H-PGD2 binding, 4% HSA

| Compound | EC50 [nM] |
| --- | --- |
| COc1cc(Cl)c(CCNC(=O)c2ccc(Oc3cc4c(cc3Cl)C(C(=O)O)CCO4)cc2)c(Cl)c1 (centres unmarked) [Example 224, 6-chloro-7-(4-(2,6-dichloro-4-methoxyphenethylcarbamoyl)phenoxy)chroman-4-carboxylic acid] | 373 |
| O=C(NCCc1ccccc1-c1ccccc1Cl)c1ccc(Oc2cc3c(cc2Cl)C(C(=O)O)CCO3)cc1 (centres unmarked) [Example 96, Sodium 6-chloro-7-(4-(2-(2′-chlorobiphenyl-2-yl)ethylcarbamoyl)phenoxy)chroman-4-carboxylate] | 40.2 |
| Cc1ccc(SCCNC(=O)c2ccc(Oc3cc4c(cc3Cl)C(C(=O)O)CCO4)cc2)cc1 (centres unmarked) [Example 112, Sodium 6-chloro-7-(4-(2-(p-tolylthio)ethylcarbamoyl)phenoxy)chroman-4-carboxylate] | 4190 |
| O=C(NCCc1ccc(Cl)cc1)c1ccc(Oc2ccc3c(c2)OCCC3C(=O)O)cc1 (centres unmarked) [Example 128, 7-(4-(4-chlorophenyethylcarbamoyl)phenoxy)chroman-4-carboxylic acid] | 980 |
| CC(C)(C)CCNC(=O)c1ccc(Oc2cc3c(cc2Cl)C(C(=O)O)CCO3)cc1 (centres unmarked) [Example 179, Sodium 6-chloro-7-(4-(3,3-dimethylbutylcarbamoyl)phenoxy)chroman-4-carboxylate] | 1110 |
| O=C(NCCc1ccc2c(c1)OCO2)c1ccc(Oc2cc3c(cc2Cl)C(C(=O)O)CCO3)cc1 (centres unmarked) [Example 110, Sodium 7-(4-(2-(benzo[d][1,3]dioxol-5-yl)ethylcarbamoyl)phenoxy)-6-chlorochroman-4-carboxylate] | 607 |
| O=C(NCCSc1ccc(Cl)cc1)c1ccc(Oc2cc3c(cc2Cl)C(C(=O)O)CCO3)cc1 (centres unmarked) [Example 113, Sodium 6-chloro-7-(4-(2-(4-chlorophenylthio)ethylcarbamoyl)phenoxy)chroman-4-carboxylate] | 2380 |
| O=C(NCCc1cccc(Cl)c1)c1ccc(Oc2cc3c(cc2Cl)C(C(=O)O)CCO3)cc1 (centres unmarked) [Example 150, Sodium 6-chloro-7-(4-(3-chlorophenethylcarbamoyl)phenoxy)chroman-4-carboxylate] | 341 |
| CCc1ccccc1CCNC(=O)c1ccc(Oc2cc3c(cc2Cl)C(C(=O)O)CCO3)cc1 (centres unmarked) [Example 196, sodium 6-chloro-7-(4-(2-ethylphenethylcarbamoyl)phenoxy)chroman-4-carboxylate] | 269 |
| CC(C)Oc1cc(Cl)ccc1CCNC(=O)c1ccc(Oc2cc3c(cc2Cl)C(C(=O)O)CCO3)cc1 (centres unmarked) [Example 202, sodium 6-chloro-7-(4-(4-chloro-2-isopropoxy-phenethylcarbamoyl)phenoxy)chroman-4-carboxylate] | 71.6 |
| O=C(NCCc1ccc(C(F)(F)F)cc1Cl)c1ccc(Oc2cc3c(cc2Cl)C(C(=O)O)CCO3)cc1 (centres unmarked) [Example 98, Sodium 6-chloro-7-(4-(2-chloro-4-(trifluoromethyl)phenethylcarbamoyl)phenoxy)chroman-4-carboxylate] | 193 |
| COc1cccc(CCNC(=O)c2ccc(Oc3cc4c(cc3Cl)C(C(=O)O)CCO4)cc2)c1OC (centres unmarked) [Example 89, Sodium 6-chloro-7-(4-(2,3-dimethoxyphenethylcarbamoyl)phenoxy)chroman-4-carboxylate] | 146 |
| O=C(NCCC1CCCC1)c1ccc(Oc2cc3c(cc2Cl)C(C(=O)O)CCO3)cc1 (centres unmarked) [Example 186, Sodium 6-chloro-7-(4-(2-cyclopentylethylcarbamoyl)phenoxy)chroman-4-carboxylate] | 538 |
| O=C(NCCc1cccc(O)c1)c1ccc(Oc2cc3c(cc2Cl)C(C(=O)O)CCO3)cc1 (centres unmarked) [Example 83, Sodium 6-chloro-7-(4-(3-hydroxyphenethylcarbamoyl)phenoxy)chroman-4-carboxylate] | 569 |
| O=C(NC1CCC(c2ccc(Cl)c(Cl)c2)C1)c1ccc(Oc2cc3c(cc2Cl)C(C(=O)O)CCO3)cc1 (centres unmarked) [Example 173, Sodium 6-chloro-7-(4-(3-(3,4-dichlorophenyl)cyclopentylcarbamoyl)phenoxy)chroman-4-carboxylate] | 327 |
| Cc1cccc(-c2cccc(NC(=O)c3ccc(Oc4cc5c(cc4C#N)C(C(=O)O)CCO5)cc3)c2)c1C (centres unmarked) [Example 109, 6-Cyano-7-(4-(2′,3′-dimethylbiphenyl-3-ylcarbamoyl)phenoxy)chroman-4-carboxylic acid] | 104 |
| N#Cc1cc2c(cc1Oc1ccc(C(=O)NC3CC3c3ccc(Cl)cc3)cc1)OCCC2C(=O)O (centres unmarked) [Example 51, 7-(4-((2-(4-Chlorophenyl)cyclopropyl)carbamoyl)phenoxy)-6-cyano-3,4-dihydro-2H-chromene-4-carboxylic acid] | 14.8 |
| COc1ccccc1CCNC(=O)c1ccc(Oc2cc3c(cc2Cl)C(C(=O)O)CCO3)cc1 (centres unmarked) [Example 63, Sodium 6-chloro-7-(4-(2-methoxyphenethylcarbamoyl)phenoxy)chroman-4-carboxylate] | 305 |
| O=C(NCCc1ccc(-c2ccccc2Cl)cc1)c1ccc(Oc2cc3c(cc2Cl)C(C(=O)O)CCO3)cc1 (centres unmarked) [Example 26, Sodium 6-chloro-7-(4-(2-(2′-chlorobiphenyl-4-yl)ethylcarbamoyl)phenoxy)chroman-4-carboxylate] | 160 |
| CC(C)(C)Oc1ccccc1CCNC(=O)c1ccc(Oc2cc3c(cc2Cl)C(C(=O)O)CCO3)cc1 (centres unmarked) [Example 116, Sodium 7-(4-(2-tert-butoxyphenethylcarbamoyl)phenoxy)-6-chlorochroman-4-carboxylate] | 304 |
| O=C(NCCC1CC1)c1ccc(Oc2cc3c(cc2Cl)C(C(=O)O)CCO3)cc1 (centres unmarked) [Example 25, Sodium 6-chloro-7-(4-(2-cyclopropylethylcarbamoyl)phenoxy)chroman-4-carboxylate] | 3330 |
| O=C(NCCc1cccc(Oc2ccccc2)c1)c1ccc(Oc2cc3c(cc2Cl)C(C(=O)O)CCO3)cc1 (centres unmarked) [Example 149, Sodium 6-chloro-7-(4-(3-phenoxyphenethylcarbamoyl)phenoxy)chroman-4-carboxylate] | 280 |
| CC(C)(C)c1ccc(CCNC(=O)c2ccc(Oc3cc4c(cc3Cl)C(C(=O)O)CCO4)cc2)cc1 (centres unmarked) [Example 142, Sodium 7-(4-(4-tert-butylphenethylcarbamoyl)phenoxy)-6-chlorochroman-4-carboxylate] | 140 |
| CCOc1cc(Cl)c(Cl)cc1CCNC(=O)c1ccc(Oc2cc3c(cc2Cl)C(C(=O)O)CCO3)cc1 (centres unmarked) [Example 201, sodium 6-chloro-7-(4-(4,5-dichloro-2-ethoxyphenethylcarbamoyl)phenoxy)chroman-4-carboxylate] | 138 |
| N#Cc1cc2c(cc1Oc1ccc(C(=O)NCCc3ccc(-c4ccccc4)cc3)cc1)OCCC2C(=O)O (centres unmarked) [Example 58, 7-(4-(2-(Biphenyl-4-yl)ethylcarbamoyl)phenoxy)-6-cyanochroman-4-carboxylic acid] | 434 |
| COC(CNC(=O)c1ccc(Oc2cc3c(cc2Cl)C(C(=O)O)CCO3)cc1)c1ccc(Cl)cc1 (centres unmarked) [Example 188, Sodium 6-chloro-7-(4-(2-(4-chlorophenyl)-2-methoxyethylcarbamoyl)phenoxy)chroman-4-carboxylate] | 759 |
| CC(C)(C)C1CCC(NC(=O)c2ccc(Oc3cc4c(cc3Cl)C(C(=O)O)CCO4)cc2)CC1 (centres unmarked) [Example 156, 7-(4-(4-tert-butylcyclohexylcarbamoyl)phenoxy)-6-chlorochroman-4-carboxylic acid] | 509 |
| O=C(NCCCc1ccc(Cl)cc1)c1ccc(Oc2cc3c(cc2Cl)C(C(=O)O)CCO3)cc1 (centres unmarked) [Example 77, Sodium 6-chloro-7-(4-(3-(4-chlorophenyl)propylcarbamoyl)phenoxy)chroman-4-carboxylate] | 356 |
